IC50, GI50 and microsomal CLint data for 14 compounds are collected here from patent publication US20240092779A1, “USP1 INHIBITORS AND USES THEREOF” (Zentaur Therapeutics USA Inc., priority 2022, published 2024).

For series [1], the target named is T1, recombinant USP1/UAF1 enzyme complex (Homo sapiens, UniProt O94782).
T1 construct: purchased Biortus
The series can be described thus: Enzyme assay: deubiquitinase fluorometric assay with ubiquitin-Rhodamine substrate. It counts as biochemical. The note with it: USP1/UAF1, Ub-Rho110 substrate, 2 hours preincubation, 1 hour reaction. The method, then: Enzymatic inhibitory potency of the compounds was assessed in a deubiquitinase fluorometric assay using ubiquitin-Rhodamine (Ub-Rho110, R&D Systems) as substrate and the recombinant USP1/UAF1 enzyme complex (Biortus). Assays were performed in a final volume of 12 μL using black 384-well plates (Corning #4514) containing 50 mM HEPES (pH 7.5, BioRoYee), 0.5 mM EDTA, 1 mM dithiothreitol, 0.1 mg/mL bovine serum albumin, 50 nM Ub-Rhol10, 0.004 nM USP1/UAF1, and series diluted compounds from 10 μM to 0.5 nM (10 dilution steps). Assay-ready plates containing 40 nL of Echo-dispensed compound in DMSO were reconstituted with 2 μL of ddH2O, then 5 μL of USP1/UAF1 enzyme mixture was added and preincubated at room temperature for 2 hours. Enzymatic reaction was initiated by the addition of […] substrate mixture and assay allowed to proceed for 1 hour at room temperature before quenching with 3 μL of 150 mM citric acid. Fluorescence signal was detected via TECAN SPARK with excitation at 485 nm and emission at 535 nm. Data analysis was done using GraphPad Prism8 and IC50 values were obtained by 4-parameter logistic curve fitting.
Certain compounds were tested in the assays.

The subject of series [2] is HCC1806 Ub-PCNA (USP1). The series can be described thus: USP1 Western Blot Protocol (HCC1806 Ub-PCNA). The class given is cell-based. The note with it: HCC1806 cells, 4 hours. Summed up:
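HCC1806 cells seeded overnight, then treated 4 h at 37 °C with a 5-point, 4-fold dilution series (0.1% DMSO). Lysates immunoblotted for Ub-PCNA with fluorescent detection; inhibition expressed as % vehicle from Ub-PCNA upregulation, IC50 by four-parameter logistic fit.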
On the technique in general: Immunoblotting shows a protein as a band on a membrane.

In series [3] the test system is MDA-MB-436 cells. The series can be described thus: CTG Protocol (MDA-MB-436 GI50), antiproliferative activity. The class given is cell-based, human. As to conditions: MDA-MB-436 cells (BRCA1 mutation), 7-day incubation, CellTiter-Glo. Summed up: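 BRCA1-mutant MDA-MB-436 cells were seeded at 1000 cells/well in DMEM, left overnight, then exposed to a 9-point, 3-fold compound series for 7 days at 37 °C, 5% CO2. Viability was read by CellTiter-Glo luminescence. % inhibition was plotted against concentration to derive GI50.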
For orientation: In ATP-based viability assays light output follows the ATP content of the culture.

A short description of series [4]: Liver microsomal stability (HLM). It counts as in vitro ADME. As to conditions: human, liver microsomes, human liver microsomes 0.5 mg/mL, 1 μM compound, NADPH. In general terms: Liver microsomes are a subcellular fraction often used to study metabolism.

Bounds are passed on as bounds.

T1 sequence (O94782 whole entry): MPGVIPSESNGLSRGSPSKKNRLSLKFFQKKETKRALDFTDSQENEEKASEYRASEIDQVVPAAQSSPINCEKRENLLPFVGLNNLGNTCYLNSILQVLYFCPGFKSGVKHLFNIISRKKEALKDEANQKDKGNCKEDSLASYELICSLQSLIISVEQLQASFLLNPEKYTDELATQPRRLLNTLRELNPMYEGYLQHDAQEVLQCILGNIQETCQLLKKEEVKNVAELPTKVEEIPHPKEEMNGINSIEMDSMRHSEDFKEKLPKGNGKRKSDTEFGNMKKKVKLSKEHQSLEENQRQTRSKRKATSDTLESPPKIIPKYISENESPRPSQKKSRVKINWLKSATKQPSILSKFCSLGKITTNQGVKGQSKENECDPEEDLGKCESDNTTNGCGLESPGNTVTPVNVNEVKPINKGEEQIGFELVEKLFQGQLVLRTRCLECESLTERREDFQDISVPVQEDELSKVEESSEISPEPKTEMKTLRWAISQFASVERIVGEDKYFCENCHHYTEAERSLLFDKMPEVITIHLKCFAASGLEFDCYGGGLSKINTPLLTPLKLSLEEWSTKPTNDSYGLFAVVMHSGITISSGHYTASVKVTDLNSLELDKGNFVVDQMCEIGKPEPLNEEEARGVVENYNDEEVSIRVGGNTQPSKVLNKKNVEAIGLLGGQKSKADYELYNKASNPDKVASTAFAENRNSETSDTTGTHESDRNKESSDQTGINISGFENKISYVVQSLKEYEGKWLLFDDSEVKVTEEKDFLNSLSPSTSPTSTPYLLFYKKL
T1 sequence (Q8TAF3 whole entry partner): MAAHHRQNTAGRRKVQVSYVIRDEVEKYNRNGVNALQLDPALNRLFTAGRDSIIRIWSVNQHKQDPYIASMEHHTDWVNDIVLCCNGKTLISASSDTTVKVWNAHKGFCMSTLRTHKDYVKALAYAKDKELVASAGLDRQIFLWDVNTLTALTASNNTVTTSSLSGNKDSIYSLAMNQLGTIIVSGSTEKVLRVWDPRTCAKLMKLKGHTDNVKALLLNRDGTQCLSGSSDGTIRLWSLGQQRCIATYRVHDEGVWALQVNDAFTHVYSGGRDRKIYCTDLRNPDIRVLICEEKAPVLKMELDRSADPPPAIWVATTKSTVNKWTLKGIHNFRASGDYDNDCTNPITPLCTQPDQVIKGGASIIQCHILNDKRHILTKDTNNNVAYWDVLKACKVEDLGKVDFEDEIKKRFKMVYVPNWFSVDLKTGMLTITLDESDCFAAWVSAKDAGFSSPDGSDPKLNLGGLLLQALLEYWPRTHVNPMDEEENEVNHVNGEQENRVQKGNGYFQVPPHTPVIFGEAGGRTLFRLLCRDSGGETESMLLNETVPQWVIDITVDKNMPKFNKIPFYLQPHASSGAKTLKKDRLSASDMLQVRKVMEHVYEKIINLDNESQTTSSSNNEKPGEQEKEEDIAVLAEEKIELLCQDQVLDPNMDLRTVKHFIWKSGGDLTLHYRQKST

For `COc1ncnc(C2CC2)c1-c1ncc2c(n1)N(Cc1ccc(-c3nc(C(F)(F)F)cn3C(C)C)cc1)C(=O)N(C)C2` [Compound I-25], the IC50 in series [1] and in series [2] (Homo sapiens) was 10 to 100 nM in each case. The GI50 in series [3] (Homo sapiens, 168 h) was in the range of 10 to 100 nM. The compound also returned a microsomal CLint at 1 μM in series [4] of at least 50 µL/min/mg.

Consider `CCn1cc(C(F)(F)F)nc1-c1ccc(Cn2c(=O)cnc3cnc(-c4c(OC)ncnc4C4CC4)nc32)cc1` [Compound I-28], for which the IC50 in series [1] was 10 to 100 nM; in series [2] (Homo sapiens), under 10 nM. In series [3] (Homo sapiens, 168 h), this compound registered a GI50 of under 10 nM.

With `COc1ncnc(C2CC2)c1-c1ncc2c(n1)N(Cc1ccc(-c3nc(C(F)(F)F)cn3C(C)C)cc1)C(=O)NC2` [Compound I-24], the IC50 in series [1] and in series [2] (Homo sapiens) was 10 to 100 nM in each case. The same compound returned a GI50 in series [3] (Homo sapiens, 168 h) of 10 to 100 nM. Also, in series [4], the microsomal CLint at 1 μM was at least 50 µL/min/mg.

`COc1cc(Cn2c(=O)ccc3cnc(-c4c(OC)ncnc4C4CC4)nc32)cc(F)c1-c1nc(C(F)(F)F)cn1C` [Compound 73, 2-(4-Cyclopropyl-6-Methoxypyrimidin-5-Yl)-8-({3-Fluoro-5-Methoxy-4-[1-Methyl-4-(Trifluoromethyl)Imidazol-2-Yl]Phenyl}Methyl)Pyrido[2,3-d]Pyrimidin-7-One]: the IC50 in series [1] and in series [2] (Homo sapiens) was 10 to 100 nM throughout. In series [3] (Homo sapiens, 168 h), this compound returned a GI50 of 10 to 100 nM.

`COc1cc(Cn2c(=O)ccc3cnc(-c4c(OC)ncnc4C4CC4)nc32)cc(F)c1-c1nc(C(F)(F)F)cn1C1CC1` [Compound 53, 8-({4-[1-cyclopropyl-4-(trifluoromethyl)imidazol-2-yl]-3-fluoro-5-methoxyphenyl}methyl)-2-(4-cyclopropyl-6-methoxypyrimidin-5-yl)pyrido[2,3-d]pyrimidin-7-one]: the IC50 in series [1] and in series [2] (Homo sapiens) was 10 to 100 nM in each case. This compound also returned a GI50 in series [3] (Homo sapiens, 168 h) of under 10 nM.

In the case of `CCn1cc(C(F)(F)F)nc1-c1ccc(Cn2c(=O)c(C(=O)N3CCN(C)CC3)cc3cnc(-c4c(OC)ncnc4C4CC4)nc32)cc1` [Compound I-30, 2-(4-Cyclopropyl-6-Methoxypyrimidin-5-Yl)-8-({4-[1-Ethyl-4-(Trifluoromethyl)Imidazol-2-Yl]Phenyl}Methyl)-6-(4-Methylpiperazine-1-Carbonyl)Pyrido[2,3-d]Pyrimidin-7-One], the IC50 in series [1] and in series [2] (Homo sapiens) was 10 to 100 nM in each case. This compound returned a GI50 in series [3] (Homo sapiens, 168 h) of 10 to 100 nM.

As to `COc1ncnc(C2CC2)c1-c1ncc2ccc(=O)n(Cc3ccc(-c4ncccc4F)cc3)c2n1` [Compound 65, 2-(4-cyclopropyl-6-methoxypyrimidin-5-yl)-8-{[4-(3-fluoropyridin-2-yl)phenyl]methyl}pyrido[2,3-d]pyrimidin-7-one], the IC50 in series [1] is 10 to 100 nM; in series [2] (Homo sapiens) it was over 1000 nM. The GI50 in series [3] (Homo sapiens, 168 h) lay within 100 to 1000 nM.

For the compound `COc1ncnc(C2CC2)c1-c1ncc2cc(C(F)F)c(=O)n(Cc3ccc(-c4nc(C(F)(F)F)cn4C)cc3)c2n1` [Compound 77], the IC50 in series [1] and in series [2] was 10 to 100 nM throughout. In series [3], this compound came in with a GI50 of 10 to 100 nM.

Regarding `COc1ncnc(C2CC2)c1-c1ncc2ccc(=O)n(Cc3ccc(-c4ncccc4OC(C)C)cc3)c2n1` [Compound I-33], the IC50 in series [1] and in series [2] (Homo sapiens) was 10 to 100 nM in each case. In series [3] (Homo sapiens, 168 h), this compound displayed a 50% growth inhibitory concentration (GI50) of 10 to 100 nM. For the same compound, in series [4], the microsomal CLint at 1 μM is at least 50 µL/min/mg.

Consider `CC(C)n1ncc(Cl)c1-c1ncc2ccc(=O)n(Cc3ccc(-c4nc(C(F)(F)F)cn4C)cc3)c2n1` [Compound I-44, 2-(4-Chloro-2-Isopropylpyrazol-3-Yl)-8-({4-[1-Methyl-4-(Trifluoromethyl)Imidazol-2-Yl]Phenyl}Methyl)Pyrido[2,3-d]Pyrimidin-7-One], for which the IC50 in series [1] and in series [2] (Homo sapiens) was 10 to 100 nM each time. Further, the GI50 in series [3] (Homo sapiens, 168 h) lay in the range of 10 to 100 nM.

Turning to `CCc1ncnc(OC)c1-c1ncc2ccc(=O)n(Cc3ccc(-c4nc(C(F)(F)F)cn4C)cc3)c2n1` [Compound I-48, 2-(4-Ethyl-6-Methoxypyrimidin-5-Yl)-8-({4-[1-Methyl-4-(Trifluoromethyl)Imidazol-2-Yl]Phenyl}Methyl)Pyrido[2,3-d]Pyrimidin-7-One], the IC50 in series [1] and in series [2] (Homo sapiens) was 10 to 100 nM each time. In series [3] (Homo sapiens, 168 h), this compound registered a GI50 of 10 to 100 nM.

With `COc1cccnc1-c1ccc(Cn2c(=O)ccc3cnc(-c4c(OC)ncnc4C4CC4)nc32)cc1` [Compound 66, 2-(4-cyclopropyl-6-methoxypyrimidin-5-yl)-8-{[4-(3-methoxypyridin-2-yl)phenyl]methyl}pyrido[2,3-d]pyrimidin-7-one], the IC50 in series [1] and in series [2] (Homo sapiens) was 10 to 100 nM each time. Besides, the GI50 in series [3] (Homo sapiens, 168 h) fell in the range of 10 to 100 nM.

`COc1ncnc(C2CC2)c1-c1ncc2ccc(=O)n(Cc3ccc(-c4ncccc4N4CCN(C)CC4)cc3)c2n1` [Compound 85, 2-(4-cyclopropyl-6-methoxypyrimidin-5-yl)-8-({4-[3-(4-methylpiperazin-1-yl)pyridin-2-yl]phenyl}methyl)pyrido[2,3-d]pyrimidin-7-one]: the IC50 in series [1] is 10 to 100 nM; in series [2] (Homo sapiens), 100 to 1000 nM. This compound yielded a GI50 in series [3] (Homo sapiens, 168 h) of 10 to 100 nM.

`COc1ncnc(C2CC2)c1-c1ncc2ccc(=O)n(Cc3ccc(-c4nc(C(F)(F)F)cn4CC(F)F)cc3)c2n1` [Compound 61, 2-(4-cyclopropyl-6-methoxypyrimidin-5-yl)-8-({4-[1-(2,2-difluoroethyl)-4-(trifluoromethyl)imidazol-2-yl]phenyl}methyl)pyrido[2,3-d]pyrimidin-7-one]: the IC50 in series [1] and in series [2] (Homo sapiens) was 10 to 100 nM each time. Moreover, in series [3] (Homo sapiens, 168 h), the 50% growth inhibitory concentration (GI50) was in the range of 10 to 100 nM.

The IC50 is the concentration that inhibits the measured activity by half. As a reminder, the GI50 is the concentration giving 50% growth inhibition. High values mean lower sensitivity of the cells, low ones greater sensitivity of the cells. A word on the microsomal CLint: it is the capacity of the preparation to metabolise the compound, expressed as a volume cleared per time. A higher microsomal CLint goes with rapid turnover.
